Measured values published in patent US7449465B2, “Triazolopyrimidine derivatives as glycogen synthase kinase 3 inhibitors” (Janssen Pharmaceutica, N.V., priority 2003, dated 2008).
Structures can show the parent of a compound that is named as a salt.

Columns and labels:
GSK3alpha = GSK3alpha (Homo sapiens, UniProt P49840); experiment: GSK3alpha assay (same as the GSK3beta assay, 0.25 ng/μl GSK3alpha); format: biochemical; conditions: ranges of pIC50 (−log IC50 (M)), 1 μM ATP, read-out: GSK3a pIC50 (converted)
Experimental: (§1) GSK3beta assays were performed at room temperature in a 100 μl reaction volume of 25 mM Tris (pH 7.4) containing 10 mM MgCl2.6H2O, 1 mM DTI, 0.1 mgiml BSA, 5% glycerol and containing 5.7 ng/μl GSK3β, 5 μM biotinylated phosphorylated CREB peptide, 1 μM ATP, 0.85 μCi/ml ATP-P^33 and a suitable amount of a test compound of formula (I). After one hour, the reaction was terminated by adding 70 μl of Stop mix (0.1 mM ATP, 5 mg/ml streptavidin coated PVT SPA bead pH 11.0). The beads to which the phosphorylated CREB peptide is attached were allowed to settle overnight and the radioactivity of the beads was counted in a microtiterplate scintillation counter and compared with the results obtained in a control experiment (without the presence of a test compound) in order to determine the percentage of GSK3β inhibition. The IC50 value, i.e. the concentration (M) of the test compound at which 50% of GSK3β is inhibited, was calculated from the dose response curve obtained by performing the above-described GSK3β assay in the presence of different amounts of the test compound.
The GSK3alpha assay was performed in the same way as described above for the GSK3beta assay except for the concentration of GSK3alpha which is 0.25 ng/μl.

GSK3β = GSK3β (Homo sapiens, UniProt P49841); experiment: GSK3beta assay (SPA, biotinylated phosphorylated CREB peptide, ATP-P33); format: biochemical; conditions: ranges of pIC50 (−log IC50 (M)); 1 μM ATP, room temperature, one hour; read-out: GSK3b pIC50 (converted)
Experimental: as §1

Chain of GSK3alpha (P49840 whole entry, species assumed): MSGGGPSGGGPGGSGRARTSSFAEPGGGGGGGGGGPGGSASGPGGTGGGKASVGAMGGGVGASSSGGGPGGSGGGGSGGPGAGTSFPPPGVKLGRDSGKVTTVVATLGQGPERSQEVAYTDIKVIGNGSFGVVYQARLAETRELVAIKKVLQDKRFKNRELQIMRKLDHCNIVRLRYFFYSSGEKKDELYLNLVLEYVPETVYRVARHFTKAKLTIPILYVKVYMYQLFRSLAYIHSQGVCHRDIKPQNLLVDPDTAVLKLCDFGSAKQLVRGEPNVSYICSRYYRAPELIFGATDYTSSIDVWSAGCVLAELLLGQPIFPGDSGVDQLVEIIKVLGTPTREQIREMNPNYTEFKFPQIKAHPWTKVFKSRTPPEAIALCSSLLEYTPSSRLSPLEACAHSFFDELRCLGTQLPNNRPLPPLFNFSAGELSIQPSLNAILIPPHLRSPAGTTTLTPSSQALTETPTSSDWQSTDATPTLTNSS
Chain of GSK3β (P49841 whole entry, species assumed): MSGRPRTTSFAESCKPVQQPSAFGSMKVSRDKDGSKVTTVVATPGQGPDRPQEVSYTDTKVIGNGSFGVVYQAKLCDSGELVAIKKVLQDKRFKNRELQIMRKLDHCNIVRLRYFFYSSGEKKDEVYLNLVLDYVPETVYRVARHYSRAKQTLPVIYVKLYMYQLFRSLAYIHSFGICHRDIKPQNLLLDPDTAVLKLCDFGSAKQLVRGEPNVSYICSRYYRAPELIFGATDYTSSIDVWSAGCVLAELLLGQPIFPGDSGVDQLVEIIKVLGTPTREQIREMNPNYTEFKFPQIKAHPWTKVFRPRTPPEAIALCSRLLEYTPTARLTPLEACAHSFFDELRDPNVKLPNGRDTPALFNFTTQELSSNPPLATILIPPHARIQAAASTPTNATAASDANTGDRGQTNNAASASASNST

Row | Structure (SMILES) | IC50 (GSK3alpha) | IC50 (GSK3β) | melting point
1 | CN1CCN(c2ccc(Nc3ncc4nnn(C5CCCCC5)c4n3)cc2)CC1 [Compound 4] | – | – | 167 °C
2 | Cc1nccc(-c2cccc(Nc3ncc4nnn(-c5cccc(F)c5)c4n3)c2)n1 [Compound 32] | < 1e-08 M | < 1e-08 M | –
3 | Cn1nnnc1-c1cccc(Nc2ncc3nnn(-c4cccc(S(N)(=O)=O)c4)c3n2)c1 [Compound 146] | < 1e-08 M | 1e-08 M | –
4 | Nc1nccc(-c2cccc(Nc3ncc4nnn(-c5cccc(CO)c5)c4n3)c2)n1 [Compound 97] | < 1e-08 M | < 1e-08 M | –
5 | Cc1nc(-c2cccc(Nc3ncc4nnn(-c5cccc(F)c5)c4n3)c2)cs1 [Compound 21] | < 1e-08 M | < 1e-08 M | –
6 | Nc1nccc(-c2cccc(Nc3ncc4nnn(-c5cccc(S(N)(=O)=O)c5)c4n3)c2)n1 [Compound 147] | < 1e-08 M | < 1e-08 M | –
7 | Cn1cc(Br)c(-c2cccc(Nc3ncc4nnn(-c5cccc(CCO)c5)c4n3)c2)n1 [Compound 152] | < 1e-08 M | < 1e-08 M | –
8 | Brc1cccc(-n2nnc3cnc(Nc4cccc(C5=NCNC5)c4)nc32)c1 (as salt: HCl) [Compound 43] | – | – | > 260 °C
9 | CN1CCN(CCOc2ccc(Nc3ncc4nnn(-c5cccc(CC#N)c5)c4n3)cc2)CC1 [Compound 93] | 1e-08 to 1e-07 M | 1e-08 to 1e-07 M | –
10 | CCOC(=O)NCc1cccc(-n2nnc3cnc(Nc4cccc(-c5cnco5)c4)nc32)c1 [Compound 125] | < 1e-08 M | < 1e-08 M | –
11 | COCCOCc1cccc(-n2nnc3cnc(Nc4ccc(N5CCN(C)CC5)cc4)nc32)c1 [Compound 108] | 1e-08 to 1e-07 M | < 1e-08 M | –
12 | COCCOCc1cccc(-n2nnc3cnc(Nc4ccc(C(=O)NCCN5CCOCC5)cc4)nc32)c1 [Compound 112] | < 1e-08 M | < 1e-08 M | –
13 | COCCOc1cccc(-n2nnc3cnc(Nc4ccc(C(=O)NCCN5CCOCC5)cc4)nc32)c1 [Compound 134] | < 1e-08 M | 1e-08 to 1e-07 M | –

More lines, now with the values ahead:

Row | IC50 (GSK3alpha) | IC50 (GSK3β) | melting point | Structure (SMILES)
14 | < 1e-08 M | < 1e-08 M | > 260 °C | N#CCc1cccc(-n2nnc3cnc(Nc4cccc(-c5ccnc(N)n5)c4)nc32)c1 [Compound 87]
15 | < 1e-08 M | < 1e-08 M | – | Fc1cccc(-n2nnc3cnc(Nc4cccc(-c5ncc[nH]5)c4)nc32)c1 [Compound 149]
16 | < 1e-08 M | < 1e-08 M | – | Cn1nnc(-c2cccc(Nc3ncc4nnn(-c5cccc(F)c5)c4n3)c2)n1 [Compound 29]
17 | < 1e-08 M | < 1e-08 M | – | COCc1cccc(-n2nnc3cnc(Nc4ccc(C(=O)NCCN5CCOCC5)cc4)nc32)c1 [Compound 104]
18 | < 1e-08 M | < 1e-08 M | – | N#CCc1cccc(-n2nnc3cnc(Nc4ccc(CN5CCC(O)CC5)cc4)nc32)c1 [Compound 90]
19 | < 1e-08 M | < 1e-08 M | – | COc1cccc(-n2nnc3cnc(Nc4cccc(-c5cnco5)c4)nc32)c1 [Compound 16]
20 | < 1e-08 M | < 1e-08 M | – | Fc1cccc(-n2nnc3cnc(Nc4cccc(-c5nnn[nH]5)c4)nc32)c1 [Compound 27]
21 | < 1e-08 M | 1e-08 to 1e-07 M | – | Cn1ccnc1-c1cccc(Nc2ncc3nnn(-c4cccc(C(N)=O)c4)c3n2)c1 [Compound 7]
22 | 1e-08 to 1e-07 M | 1e-08 M | – | OCCc1cccc(-n2nnc3cnc(Nc4cccc(-c5nnn[nH]5)c4)nc32)c1 [Compound 75]
23 | < 1e-08 M | > 1e-09 M | – | CC(=O)NCc1cccc(-n2nnc3cnc(Nc4cccc(-c5ccnc(N)n5)c4)nc32)c1 [Compound 117]
24 | 1e-08 M | 1e-08 to 1e-07 M | – | COCCOCc1cccc(-n2nnc3cnc(Nc4ccc(OCCCN5CCN(C)CC5)cc4)nc32)c1 [Compound 113]
25 | < 1e-08 M | 1e-08 to 1e-07 M | – | CN1CCN(CCOc2ccc(Nc3ncc4nnn(-c5cccc(F)c5)c4n3)cc2)CC1 [Compound 140]
26 | < 1e-08 M | < 1e-08 M | – | NCc1cccc(-n2nnc3cnc(Nc4cccc(-c5cnco5)c4)nc32)c1 [Compound 114]
27 | < 1e-08 M | < 1e-08 M | – | NC(=O)Cc1cccc(-n2nnc3cnc(Nc4cccc(-c5cnco5)c4)nc32)c1 [Compound 95]
28 | – | – | > 250 °C | NCc1cccc(-n2nnc3cnc(Nc4cccc(-c5cnco5)c4)nc32)c1 (as salt: HCl) [Compound 114]
29 | < 1e-08 M | < 1e-08 M | – | c1ccc(-n2nnc3cnc(Nc4cccc(-c5cnco5)c4)nc32)cc1 [Compound 73]
30 | < 1e-08 M | < 1e-08 M | – | Cn1cnnc1-c1cccc(Nc2ncc3nnn(-c4cccc(F)c4)c3n2)c1 [Compound 26]
